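How tested: cells in 96-well plates exposed to compound for 48 hours at five concentrations. Here, GI50 denotes the concentration required for 50% inhibition of growth. TGI denotes the concentration required for complete inhibition of growth.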
Key:
Test in all cases: NCI tumour cell line growth inhibition, 48 h
786-0 renal = tested on: 786-0 renal
A498 renal = tested on: A498 renal
A549 NSCLC = tested on: A549 NSCLC
ACHN renal = tested on: ACHN renal
BT-549 breast = tested on: BT-549 breast
CAKI-1 renal = tested on: CAKI-1 renal
CCRF-CEM leukemia = tested on: CCRF-CEM leukemia
COLO 205 colon = tested on: COLO 205 colon
DU-145 prostate = tested on: DU-145 prostate
EKVX NSCLC = tested on: EKVX NSCLC
HCC-2998 colon = tested on: HCC-2998 colon
HCT-15 colon = tested on: HCT-15 colon
HL-60(TB) leukemia = tested on: HL-60(TB) leukemia
HOP-62 NSCLC = tested on: HOP-62 NSCLC
HOP-92 NSCLC = tested on: HOP-92 NSCLC
HS 578T breast = tested on: HS 578T breast
HT29 colon = tested on: HT29 colon
IGROV1 ovarian = tested on: IGROV1 ovarian
K-562 leukemia = tested on: K-562 leukemia
KM12 colon = tested on: KM12 colon
LOX IMVI melanoma = tested on: LOX IMVI melanoma
M14 melanoma = tested on: M14 melanoma
MALME-3M melanoma = tested on: MALME-3M melanoma
MCF7 breast = tested on: MCF7 breast
MDA-MB-231 breast = tested on: MDA-MB-231 breast
MDA-MB-435 = tested on: MDA-MB-435
MDA-MB-468 breast = tested on: MDA-MB-468 breast
MOLT-4 leukemia = tested on: MOLT-4 leukemia
NCI-H226 lung = tested on: NCI-H226 lung
NCI-H23 lung = tested on: NCI-H23 lung
NCI-H460 lung = tested on: NCI-H460 lung
NCI-H522 lung = tested on: NCI-H522 lung
NCI/ADR-RES ovarian = tested on: NCI/ADR-RES ovarian
OVCAR-3 ovarian = tested on: OVCAR-3 ovarian
OVCAR-4 ovarian = tested on: OVCAR-4 ovarian
OVCAR-5 ovarian = tested on: OVCAR-5 ovarian
OVCAR-8 ovarian = tested on: OVCAR-8 ovarian
PC-3 prostate = tested on: PC-3 prostate
RPMI-8226 leukemia = tested on: RPMI-8226 leukemia
RXF 393 renal = tested on: RXF 393 renal
SF-268 CNS = tested on: SF-268 CNS
SF-295 CNS = tested on: SF-295 CNS
SF-539 CNS = tested on: SF-539 CNS
SK-MEL-2 melanoma = tested on: SK-MEL-2 melanoma
SK-MEL-28 melanoma = tested on: SK-MEL-28 melanoma
SK-MEL-5 melanoma = tested on: SK-MEL-5 melanoma
SK-OV-3 ovarian = tested on: SK-OV-3 ovarian
SN12C renal = tested on: SN12C renal
SNB-19 CNS = tested on: SNB-19 CNS
SNB-75 CNS = tested on: SNB-75 CNS
SR leukemia = tested on: SR leukemia
SW-620 colon = tested on: SW-620 colon
T-47D breast = tested on: T-47D breast
TK-10 renal = tested on: TK-10 renal
U251 CNS = tested on: U251 CNS
UACC-257 melanoma = tested on: UACC-257 melanoma
UACC-62 melanoma = tested on: UACC-62 melanoma
UO-31 renal = tested on: UO-31 renal

## CC1=C2C(=C[C@@](C)(COP(=O)(Oc3ccccc3)Oc3ccccc3)[C@@H]2O)C(=O)[C@@](C)(O)C12CC2
786-0 renal
  GI50: 284 nM
  TGI: 857 nM
A498 renal
  GI50: 1150 nM
  TGI: 4090 nM
A549 NSCLC
  GI50: 781 nM
  TGI: 3290 nM
ACHN renal
  GI50: 232 nM
  TGI: 686 nM
BT-549 breast
  GI50: 211 nM
  TGI: 614 nM
CAKI-1 renal
  GI50: 289 nM
  TGI: 2170 nM
CCRF-CEM leukemia
  GI50: 1880 nM
  TGI: > 39800 nM
COLO 205 colon
  GI50: 530 nM
  TGI: 1200 nM
DU-145 prostate
  GI50: 332 nM
  TGI: 1340 nM
EKVX NSCLC
  GI50: 641 nM
  TGI: 1800 nM
HCC-2998 colon
  GI50: 216 nM
  TGI: 639 nM
HCT-15 colon
  GI50: 208 nM
  TGI: 875 nM
HL-60(TB) leukemia
  GI50: 213 nM
  TGI: 1280 nM
HOP-62 NSCLC
  GI50: 408 nM
  TGI: 1280 nM
HOP-92 NSCLC
  GI50: 574 nM
  TGI: 1580 nM
HS 578T breast
  GI50: 1010 nM
  TGI: 4460 nM
HT29 colon
  GI50: 201 nM
  TGI: 705 nM
IGROV1 ovarian
  GI50: 399 nM
  TGI: 1240 nM
K-562 leukemia
  GI50: 1560 nM
  TGI: > 69500 nM
KM12 colon
  GI50: 628 nM
  TGI: 5820 nM
LOX IMVI melanoma
  GI50: 218 nM
  TGI: 703 nM
M14 melanoma
  GI50: 551 nM
  TGI: 1310 nM
MALME-3M melanoma
  GI50: 382 nM
  TGI: 1000 nM
MCF7 breast
  GI50: 141 nM
  TGI: 4690 nM
MDA-MB-231 breast
  GI50: 351 nM
  TGI: 1030 nM
MDA-MB-435
  GI50: 637 nM
  TGI: 2060 nM
MDA-MB-468 breast
  GI50: 147 nM
  TGI: 503 nM
MOLT-4 leukemia
  GI50: 439 nM
  TGI: 14600 nM
NCI-H226 lung
  GI50: 723 nM
  TGI: 3840 nM
NCI-H23 lung
  GI50: 158 nM
  TGI: 384 nM
NCI-H460 lung
  GI50: 234 nM
  TGI: 744 nM
NCI-H522 lung
  GI50: 223 nM
  TGI: 655 nM
NCI/ADR-RES ovarian
  GI50: 236 nM
  TGI: 778 nM
OVCAR-3 ovarian
  GI50: 286 nM
  TGI: 1080 nM
OVCAR-4 ovarian
  GI50: 355 nM
  TGI: 1470 nM
OVCAR-5 ovarian
  GI50: 359 nM
  TGI: 1340 nM
OVCAR-8 ovarian
  GI50: 286 nM
  TGI: 1090 nM
PC-3 prostate
  GI50: 397 nM
  TGI: 2340 nM
RPMI-8226 leukemia
  GI50: 4560 nM
  TGI: 38900 nM
RXF 393 renal
  GI50: 188 nM
  TGI: 493 nM
SF-268 CNS
  GI50: 350 nM
  TGI: 1500 nM
SF-295 CNS
  GI50: 294 nM
  TGI: 1230 nM
SF-539 CNS
  GI50: 327 nM
  TGI: 886 nM
SK-MEL-2 melanoma
  GI50: 246 nM
  TGI: 596 nM
SK-MEL-28 melanoma
  GI50: 681 nM
  TGI: 1690 nM
SK-MEL-5 melanoma
  GI50: 219 nM
  TGI: 609 nM
SK-OV-3 ovarian
  GI50: 357 nM
  TGI: 1310 nM
SN12C renal
  GI50: 521 nM
  TGI: 1550 nM
SNB-19 CNS
  GI50: 630 nM
  TGI: 4930 nM
SNB-75 CNS
  GI50: 477 nM
  TGI: 1270 nM
SR leukemia
  GI50: 402 nM
  TGI: 25100 nM
SW-620 colon
  GI50: 1700 nM
  TGI: 18300 nM
T-47D breast
  GI50: 946 nM
  TGI: 5190 nM
TK-10 renal
  GI50: 854 nM
  TGI: 3090 nM
U251 CNS
  GI50: 249 nM
  TGI: 1360 nM
UACC-257 melanoma
  GI50: 792 nM
  TGI: 2310 nM
UACC-62 melanoma
  GI50: 312 nM
  TGI: 804 nM
UO-31 renal
  GI50: 460 nM
  TGI: 1270 nM
